The record followed here is ChEMBL document CHEMBL4420077, “Synaptojanin-2 inhibitors and uses thereof” (2015).

Active and inactive are the calls of the source. No cut-off for these calls is given here.

The first assay deals with MDA-MB-231. The conditions noted are these: Homo sapiens, 5 mg/kg.
Description: Antitumor activity against GFP-expressing human MDA-MB-231 cells xenografted in SCID mouse assessed as reduction in tumor lung micro-metastasis at 5 mg/kg injected twice per week for 6 weeks
With `O=C(O)CC(CCc1ccccc1)O[C@H]1O[C@@H](CO)[C@H](O)[C@@H](O)[C@@H]1O` (some centres not stated), the inhibition entry was “Active”.

Another assay deals with MDA-MB-231. Particulars: Homo sapiens, 10 uM.
Description: Inhibition of cell invasion of human MDA-MB-231 cells at 10 uM incubated for 96 hrs by Matrigel based assay
For the molecule `COc1cc(O)cc(O)c1C(=O)c1ccc(O)c(O)c1`, the inhibition result was “Active”. Same read-out and setting: then `Cc1c(O)cc2c(c1O)C(=O)[C@H](O)[C@@H](c1ccc(O)c(O)c1)O2`, with “Active”.

On to `COc1cc(C2c3c(cc(OC)c(O)c3OC)CC(CO)C2COC2OCC(O)C(O)C2O)cc(OC)c1O` (configuration not stated), for which the inhibition entry is “Active”.

`Cc1cc(=O)c2c(O)cc(O)c([C@@H]3O[C@H](CO)[C@@H](O)[C@H](O)[C@H]3O)c2o1`: the inhibition result was “Active”. Regarding `C/C(=C\CO[C@@H]1O[C@H](CO)[C@@H](O)[C@H](O)[C@H]1O)C(O)CCC(C)(C)O` (some centres not stated), the inhibition result was “Active”. For `O=C1C[C@@H](c2ccc(O)c(O)c2)Oc2cc(O[C@@H]3O[C@H](CO)[C@@H](O)[C@H](O)[C@H]3O)cc(O)c21`, the inhibition entry is “Active”.
